Assay results published in US9574176B2 (priority 2012, dated 2017).

Legend:
[1] = test system: nerve cells differentiated from NVDCC-deficient mouse hippocampus-derived neural stem cells; assay type: cell-based
[2] = test system: NVDCC-deficient mouse-derived neural stem cells; assay type: cell-based
muscarinic receptor = assay type: cell-based, mouse

Which “activity potential of the differentiated neurons (spike frequency)” value [1] does the source give for `Nc1ccncc1` [4-AP, 4-aminopyridine] here?
The value was “significantly increased”.

With `CC1=C(/C=C/C(C)=C/C=C/C(C)=C/C(=O)O)C(C)(C)CCC1` [ATRA, all-trans retinoic acid] as the compound, how does the differentiation on induction [2] read?
The differentiation on induction was “most cells differentiated into MAP2 (microtubule-associated protein 2)-positive nerve cells”.

For `C[C@@H]1O[C@H](C[N+](C)(C)C)C[C@H]1O` [muscarine], which “reaction of differentiated neurons (calcium fluorescence)” value (muscarinic receptor) is on record?
The value was “reacted”.

How did the “reaction of differentiated neurons (calcium fluorescence)” value (nicotinic receptor) turn out when `CN1CCCC1c1cccnc1` (centres unmarked) [nicotine] was run?
Its value is “reacted”.

How did the “activity potential of the differentiated neurons (spike frequency)” value [1] turn out when tetradotoxin [TTX] was run?
The value was “suppressed”.
